Measured values as given in patent publication US20180179198A1, “TRICYCLIC MODULATORS OF TNF SIGNALING” (AbbVie Inc., priority 2015, published 2018).

Target: TNFα trimer (Homo sapiens, UniProt P01375)
Experiment: TNFα FP Competitive Binding Assay
Conditions: TNFα FP competitive binding assay; class symbols A/B/C; read-out: TNF IC50
Outline: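 Compounds, 12-point 1:3 dilutions topping at 100 μM (2.0% DMSO) or 338 μM (3.4% DMSO) final, compete with 1 nM fluorescent probe for 20 nM TNFα trimer in HEPES/NaCl/EDTA/Triton buffer. After 18-24 h incubation at 37 °C plus 1 h rt equilibration, background-subtracted polarization is read and fitted with variable slope.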

Chain of TNFα trimer (P01375 77-233 limits assumed): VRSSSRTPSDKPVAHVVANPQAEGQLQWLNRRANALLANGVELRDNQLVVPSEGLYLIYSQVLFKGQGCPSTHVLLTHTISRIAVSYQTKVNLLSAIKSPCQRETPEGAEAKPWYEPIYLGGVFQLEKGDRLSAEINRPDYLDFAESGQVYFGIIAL

Row | IC50 | SMILES
1 | < 1000 nM | COc1ccccc1[C@H]1COCc2nc3ccc(-c4cnc(N5CCC(O)CC5)nc4)nc3n21 [AC.1]
2 | 1000 to 10000 nM | CN1CCN(c2ncc(-c3ccc4nc5n(c4n3)C3(CCOc4ccccc43)COC5)cn2)CC1 (centres unmarked) [BB.8]
3 | 1000 to 10000 nM | CN1CCOc2cc(-c3ccc4nc5n(c4c3)C(c3ccccc3)COC5)cnc21 (centres unmarked) [T.11]
4 | < 1000 nM | O=S1(=O)CCN(c2ncc(-c3ccc4nc5n(c4c3)[C@@H](c3ccccc3)COC5)cn2)CC1 [W.3]
5 | < 1000 nM | O=C1NCC2CN(c3ncc(-c4ccc5nc6n(c5n4)C(C4CCCCC4)CC6)cn3)CCN12 (centres unmarked) [AH.6]
6 | < 1000 nM | COc1ccccc1C1CCCc2nc3ccc(-c4cnc(N5CCCC(O)CC5)nc4)cn3c21 (centres unmarked) [AJ.2]
7 | < 1000 nM | OC1CCN(c2ncc(-c3ccc4nc5n(c4n3)[C@@H](c3ccccc3)CC5)cn2)CC1 [Y.11]
8 | < 1000 nM | O=C1NC[C@@H]2CN(c3ncc(-c4ccc5nc6n(c5n4)C4(CCOc5ccccc54)COC6)cn3)CCN12 (some centres unmarked) [BB.1]
9 | < 1000 nM | OC1CC2(CCN(c3ncc(-c4ccc5nc6n(c5c4)[C@@H](c4ccccc4)COC6)cn3)CC2)C1 [W.2]
10 | < 1000 nM | O=C(CO)N1CCN(c2ncc(-c3ccc4nc5n(c4n3)C3(CCc4ccccc43)COC5)cn2)CC1 (centres unmarked) [AV.6]
11 | < 1000 nM | OC1CCC(Oc2cc(-c3ccc4nc5n(c4n3)[C@@H](c3ccccc3)CC5)ccn2)CC1 (some centres unmarked) [AQ.2]
12 | 10000 to 100000 nM | CS(=O)(=O)CCn1ccc(-c2ccc3nc4n(c3n2)[C@@H](c2ccccc2)CC4)cc1=O [AK.2]
13 | < 1000 nM | O=C1NC[C@@H]2CN(c3ncc(-c4ccc5nc6n(c5n4)C4(COC6)COc5ccccc54)cn3)CCN12 (some centres unmarked) [AU.1]
14 | < 1000 nM | COc1cccc([C@H]2CCc3nc4ccc(-c5cnc(N6CCN7C(=O)NC[C@@H]7C6)nc5)nc4n32)c1 [AM.1]
15 | < 1000 nM | COc1ccccc1C1CCCc2nc3ccc(-c4cnc(N5CCC(O)CC5)nc4)nc3n21 (centres unmarked) [AE.1]
16 | 1000 to 10000 nM | CC(C)(O)c1ncc(-c2ccc3nc4n(c3n2)C2(CCOc3ccccc32)COC4)cn1 (centres unmarked) [BA.7]
17 | 1000 to 10000 nM | CC(O)(CC1CC1)c1ncc(-c2ccc3nc4n(c3n2)[C@@H](c2ccccc2)CC4)cn1 (some centres unmarked) [AL.5]
18 | < 1000 nM | O=C1NCC2CN(c3ncc(-c4ccc5nc6n(c5c4)C(c4cccc(Cl)c4)COC6)cn3)CCN12 (centres unmarked) [AH.2]
19 | 1000 to 10000 nM | c1ccc([C@H]2CCc3nc4ccc(-c5ccnc(OC6COC6)c5)nc4n32)cc1 [AQ.3]
20 | < 1000 nM | O=C(CO)N1CCN(c2ncc(-c3ccc4nc5n(c4n3)C(c3ccccc3)COC5)cn2)CC1 (centres unmarked) [AZ.7]
21 | 1000 to 10000 nM | c1ccc(C2COCc3nc4ccc(-c5cnc(-n6cccn6)nc5)cc4n32)cc1 (centres unmarked) [T.23]
22 | < 1000 nM | O=C1NCC2CN(c3ncc(-c4ccc5nc6n(c5c4)C(c4ccccc4Cl)COC6)cn3)CCN12 (centres unmarked) [V.2]
23 | 1000 to 10000 nM | OCCOc1cc(-c2ccc3nc4n(c3n2)[C@@H](c2ccccc2)CC4)ccn1 [AQ.7]
24 | < 1000 nM | OC1CCN(c2ncc(-c3ccc4nc5n(c4n3)C(c3ccccc3)COC5)cn2)CC1(F)F (centres unmarked) [AZ.1]
25 | < 1000 nM | OC1(c2ncc(-c3ccc4nc5n(c4c3)[C@@H](c3ccccc3)CC5)cn2)CCOCC1 [AA.1]
26 | 1000 to 10000 nM | COC(C)(C)CC(=O)N1CC=C(c2ccc3nc4n(c3n2)C2(COC4)COc3ccccc32)CC1 (centres unmarked) [BI.1]
27 | 1000 to 10000 nM | c1ccc(C2C3CC(C3)c3nc4ccc(-c5ccnc(OC6CCOCC6)c5)nc4n32)cc1 (centres unmarked) [BD.1]

Row | SMILES | IC50
28 | C[C@H]1CN(c2ncc(-c3ccc4nc5n(c4n3)C3(COC5)COc4ccccc43)cn2)CCN1C(=O)COC(C)(C)C (stereo partly drawn) [BG.3, 2-(tert-Butoxy)-1-((2S)-4-(5-(6′,8′-dihydro-2H-spiro[benzofuran-3,9′-pyrido[3′,2′:4,5]imidazo[2,1-c][1,4]oxazin]-2′-yl)pyrimidin-2-yl)-2-methylpiperazin-1-yl)ethanone] | 1000 to 10000 nM
29 | C[C@@H]1CN(c2ncc(-c3ccc4nc5n(c4n3)C3(COC5)COc4ccccc43)cn2)CCN1C(=O)COC(C)(C)C (stereo partly drawn) [BG.6, 1-((2R)-4-(5-(2H,6′H,8′H-Spiro[benzofuran-3,9′-pyrido[3′,2′:4,5]imidazo[2,1-c][1,4]oxazin]-2′-yl)pyrimidin-2-yl)-2-methylpiperazin-1-yl)-2-(tert-butoxy)ethan-1-one] | < 1000 nM

Same assay, conditions: Table BK; read-out: TNF IC50

Row | IC50 | SMILES
30 | < 1000 nM | O[C@H]1CC[C@@H](COc2cc(-c3ccc4nc5n(c4n3)[C@@H](c3ccccc3)CC5)ccn2)CC1 [BK.1]

Same assay, conditions: Table BP; read-out: TNF IC50

Row | IC50 | SMILES
31 | 1000 to 10000 nM | c1ccc2c(c1)COCC21COCc2nc3ccc(-c4cnc(N5CCOCC5)nc4)nc3n21 (centres unmarked) [BP.1]

Same assay, conditions: fluorescence polarization competition; 20 nM TNFα trimer, 1 nM OregonGreen488 probe; read-out: TNF IC50 (TNFα FP binding assay IC50)

Row | IC50 | SMILES
32 | < 1000 nM | O=C1NCC2CN(c3ncc(-c4ccc5nc6n(c5c4)[C@@H](c4ccccc4)COC6)cn3)CCN12 (stereo partly drawn) [Example 9, 7-(5-((S)-4-Phenyl-3,4-dihydro-1H-benzo[4,5]imidazo[2,1-c][1,4]oxazin-7-yl)pyrimidin-2-yl)hexahydroimidazo[1,5-a]pyrazin-3(2H)-one]
33 | 10000 to 100000 nM | CC(C)(O)c1ncc(-c2ccc3nc4n(c3c2)C(c2ccccc2O)CCC4)cn1 (centres unmarked) [E.2]
34 | < 1000 nM | O=C1CN(c2ncc(-c3ccc4nc5n(c4n3)C(c3cccc(F)c3)CC5)cn2)CCN1 (centres unmarked) [M.3]
35 | 10000 to 100000 nM | CN(C)CCNC(=O)c1cccc(-c2ccc3nc4n(c3c2)C(c2ccccc2)CC4)c1 (centres unmarked) [A.45]
36 | 1000 to 10000 nM | NC(=O)c1ccc(-c2ccc3nc4n(c3c2)C(c2ccccc2)CC4)cc1 (centres unmarked) [A.36]
37 | 1000 to 10000 nM | O=C(O)CC1CCCN(c2ncc(-c3ccc4nc5n(c4c3)[C@@H](c3ccccc3)COC5)cn2)C1 (some centres unmarked) [G.3]
38 | 1000 to 10000 nM | c1ccc2c(c1)OCC21COCc2nc3ccc(-c4cnc(N5CCNCC5)nc4)nc3n21 (centres unmarked) [Example 66, 2′-(2-(Piperazin-1-yl)pyrimidin-5-yl)-2H,6′H,8′H-spiro[benzofuran-3,9′-pyrido[3′,2′:4,5]imidazo[2,1-c][1,4]oxazine]]
39 | < 1000 nM | NS(=O)(=O)c1ccc(-c2ccc3nc4n(c3c2)C(c2ccccc2)CC4)cc1 (centres unmarked) [A.6]
40 | 1000 to 10000 nM | C1=C(c2ccc3nc4n(c3n2)[C@@H](c2ccccc2)CC4)CCN(c2ccncn2)C1 [Example 76, (R)-8-Phenyl-2-(1-(pyrimidin-4-yl)-1,2,3,6-tetrahydropyridin-4-yl)-7,8-dihydro-6H-pyrrolo[2′,1′:2,3]imidazo[4,5-b]pyridine]
41 | 1000 to 10000 nM | CN1CCN(c2ccc(-c3ccc4nc5n(c4c3)C(c3ccccc3)CC5)cn2)CC1 (centres unmarked) [A.20]
42 | < 1000 nM | c1ccc(C2CCc3nc4ccc(-c5cnc(C6CC6)nc5)cc4n32)cc1 (centres unmarked) [A.8]
43 | < 1000 nM | CS(=O)(=O)c1ccc(-c2ccc3nc4n(c3c2)C(c2ccccc2)CC4)cc1 (centres unmarked) [A.5]
44 | 1000 to 10000 nM | c1ccc2c(c1)OCCC21COCc2nc3ccc(-c4cnc(NC5CCOC5)nc4)nc3n21 (centres unmarked) [Example 60, 5-(6′H,8′H-Spiro[chromane-4,9′-pyrido[3′,2′:4,5]imidazo[2,1-c][1,4]oxazin]-2′-yl)-N-(tetrahydrofuran-3-yl)pyrimidin-2-amine]
45 | 1000 to 10000 nM | COc1ccccc1C1(O)CCCc2nc3ccc(-c4cnc(N5CCOCC5)nc4)cn3c21 (centres unmarked) [Example 5, 9-(2-Methoxyphenyl)-2-(2-morpholinopyrimidin-5-yl)-6,7,8,9-tetrahydrobenzo[4,5]imidazo[1,2-a]pyridin-9-ol]
46 | 1000 to 10000 nM | OC1(c2cc(F)cc(Cl)c2)CCCc2nc3ccc(-c4cnc(N5CCOCC5)nc4)cn3c21 (centres unmarked) [I.7]
47 | < 1000 nM | OC1CCCN(c2ncc(-c3ccc4nc5n(c4c3)[C@@H](c3ccccc3)COC5)cn2)CC1 (some centres unmarked) [G.11]
48 | 1000 to 10000 nM | OC1(c2ccc(Cl)cc2)CCCCc2nc3ccc(-c4cnc(N5CCOCC5)nc4)cn3c21 (centres unmarked) [J.8]

Row | IC50 | SMILES
49 | < 1000 nM | FC1(F)CCN(c2ncc(-c3ccc4nc5n(c4n3)C(c3ccccc3)COC5)cn2)CC1 (centres unmarked) [Example 82]
50 | 1000 to 10000 nM | c1ccc(C2CCc3nc4cnc(-c5cnc(N6CCOCC6)nc5)cc4n32)cc1 (centres unmarked) [P.1]
51 | 10000 to 100000 nM | CS(=O)(=O)c1cccc(-c2ccc3nc4n(c3c2)C(c2ccccc2)CC4)c1 (centres unmarked) [A.30]
52 | < 1000 nM | OC1(c2cccc(F)c2)CCCCc2nc3ccc(-c4cnc(N5CCOCC5)nc4)cn3c21 (centres unmarked) [J.1]
53 | 1000 to 10000 nM | OC1(c2cc(F)cc(Cl)c2)CCCCc2nc3ccc(-c4cnc(N5CCOCC5)nc4)cn3c21 (centres unmarked) [J.5]
54 | < 1000 nM | COc1ccccc1C1CCOc2nc3ccc(-c4cnc(N5CCOCC5)nc4)cn3c21 (centres unmarked) [D.5]
55 | 1000 to 10000 nM | OC1(c2ccccc2)CCCc2nc3ccc(-c4cnc(N5CCOCC5)nc4)cn3c21 (centres unmarked) [I.2]
56 | < 1000 nM | CC(C)(O)c1ncc(-c2ccc3nc4n(c3c2)C(c2cccc(F)c2)CC4)cn1 (centres unmarked) [B.1]
57 | 1000 to 10000 nM | CC(C)(O)c1ncc(-c2cc3c(cn2)nc2n3C(c3ccccc3)CC2)cn1 (centres unmarked) [P.2]
58 | 1000 to 10000 nM | CSc1ccc(-c2ccc3nc4n(c3c2)C(c2ccccc2)CC4)cn1 (centres unmarked) [A.16]
59 | 1000 to 10000 nM | CN1CCC(N2CCN(c3ncc(-c4ccc5nc6n(c5c4)[C@@H](c4ccccc4)COC6)cn3)CC2)CC1 [G.13]
60 | 1000 to 10000 nM | COc1ccccc1C1CCCc2nc3ccc(-c4cnc(NCC(=O)O)nc4)cn3c21 (centres unmarked) [Example 8, 2-((5-(9-(2-methoxyphenyl)-6,7,8,9-tetrahydrobenzo[4,5]imidazo[1,2-a]pyridin-2-yl)pyrimidin-2-yl)amino)acetic acid]
61 | < 1000 nM | CC(C)(O)c1ncc(-c2ccc3nc4n(c3n2)C(c2cccc(F)c2)CC4)cn1 (centres unmarked) [M.2]
62 | < 1000 nM | CC(C)(O)c1ncc(-c2ccc3nc4n(c3n2)[C@@](C)(c2ccccc2)CC4)cn1 [(R)-2-(5-(8-methyl-8-phenyl-7,8-dihydro-6H-pyrrolo[2′,1′:2,3]imidazo[4,5-b]pyridin-2-yl)pyrimidin-2-yl)propan-2-ol]
63 | < 1000 nM | CS(=O)(=O)N1CCN(c2ncc(-c3ccc4nc5n(c4c3)[C@@H](c3ccccc3)COC5)cn2)CC1 [G.24]
64 | 1000 to 10000 nM | c1ccc(C2CCc3nc4ccc(-c5ccc6c(c5)OCO6)cc4n32)cc1 (centres unmarked) [A.37]
65 | < 1000 nM | O=C1CN(c2ncc(-c3ccc4nc5n(c4n3)C(c3ccccc3)CC5)cn2)CCN1 (centres unmarked) [L.2]
